What was measured:
Format in all cases: cell-based, human
[1] = tested on: IL-8 levels in HCT116 cells; test: IL-8 ELISA in TNF-α-treated HCT116 cells; settings: for EC50: Homo sapiens, HCT-116, 16 h, read-out: EC50 (anti-inflammatory assay, 50% of activity)
Experimental: FIGS. 13A-C depict EC50 dose of fractions on HCT116 cells. (FIG. 13A) Fraction 7 (F7), (FIG. 13B) CBD and (FIG. 13C) THC. Dose-effect curves of F7, CBD or THC on IL-8 levels of HCT116 colon cancer cells. HCT116 cells were seeded (50,000 per well) in triplicate in 500 μL, growing media and incubated for 24 hours at 37° C. in a humidified 5% CO2-95% air atmosphere. Cells were treated with 50 ng/mL TNF-α and F7, CBD or THC for 16 hours. Levels of IL-8 were measured from the supernatant using a commercial kit. Values (ng/mL) were calculated relative to a TNF-α treated control. Non-treated are the cells without TNF-α and treatments. For dose response assays, data points were connected by non-linear regression lines of the sigmoidal dose-response relation. GraphPad Prism was employed to produce dose-response curve and EC50 doses.
(§1) HCT116 (ATCC CCL-247), HT29 (ATCC HTB-38) and CaCO2 (ATCC HTB-37) colon cells were grown at 37° C. in a humidified 5% CO2-95% air atmosphere. Cells were maintained in McCoy's 5a Modified Medium (HCT116 and HT29) and Dulbecco's modified Eagle's medium (DMEM) supplemented with 10% fetal bovine serum (CaCO2).
(§2) Cells were seeded, in triplicate, into a 24-well plate at a concentration of 50,000 cells per well in 500 μL, of growing media, and then incubated for 24 hours at 37° C. in a humidified 5% CO2-95% air atmosphere. When cell excitation was performed with TNF-α, cultures in each well were treated with 50-300 ng/mL recombinant human TNF-α (PeproTech, Rocky Hill, N.J., USA) and 50 μL plant extract, as described above (dilution index 57 or 280). The supernatant was taken and the level of IL-8 [12] was measured 4-16 hours post-treatment using the commercial Human CXCL8/IL-8 DuoSet ELISA kit (R&D Systems, Minneapolis, Minn., USA). As a positive control dexamethasone (Sigma-Aldrich, St. Louis, Mo., USA) at 20, 200 and 400 μM final concentration was used.
The involvement of the receptors (CB1, CB2 and GPR55) was examined by treating the cells with 20 μM of the CB1 receptor antagonist/inverse agonist Rimonabant (Abcam, Cambridge, Mass., USA), CB2 receptor antagonist/inverse agonist SR144528 (Abcam) and GPR55 antagonist/inverse agonist CID16020046 (Sigma-Aldrich, Buchs, Switzerland). […] Cell treatment with purified compounds was performed with CBD (Restek, Pa., USA) at different concentrations (as indicated in each experiment), THCA (THCA-A; Restek) at a final concentration of 0.2 mM and THC (Restek) at a final concentration of as indicated in each experiment mM to confirm the activity of each cannabinoid.
For dose response assays, data points were connected by non-linear regression lines of the sigmoidal dose-response relation. GraphPad Prism (version 6 for windows, GraphPad software Inc. San Diego, USA) was employed to produce dose-response curves and IC50 doses were calculated using nonlinear regression analysis.

[2] = tested on: IL-8 levels in HT29 cells; test: IL-8 ELISA in TNF-α-treated HT29 cells, incl. F7/THCA + CBD combinations (Bliss model); settings: for dose response of IL-8 levels: HT29, after 4 hours of treatment, F7 5-80 μg/ml, CBD 5-80 μM, THC 12.5-75 μM
Experimental: as §1, §2
In order to examine if there is a synergy between CBD and F7, ELISA assay was used to measure the anti-inflammatory activity of the fractions on HCT116 cells. Cells were seeded into a 24-well plates at 50,000 cells per well in triplicate in normal growing media. After 24 hours of incubation at 37° C. in a humidified 5% CO2-95% air atmosphere, cells were treated with different concentration of F7 (5 μg/mL to 80 μg/mL) with and without CBD (30 μM) along with 300 ng/mL of TNF-α or with different concentration of CBD (5 μM to 120 μM) with and without F7 (30 μg/mL) along with 300 ng/mL of TNF-α for 4 hours. Following, the supernatant was taken and the levels of IL-8 were measured using the commercial Human CXCL8/IL-8 DuoSet ELISA kit (R&D Systems, Minneapolis, Minn., USA). Resazurin (R&D Systems) was used to check the cytotoxic effect of extracts.
Drug synergy was determined by Bliss independence drug interaction model which is defined by the following equation: Exy=Ex+Ey−(ExEy)
Where (Exy) is the additive effect of the drug x and y as predicted by their individual effects (Ex and Ey). For calculation purpose, in this paper, the drug's anti-cancer effect was defined as complementary to the obtained results (1−Exy). The observed combined percentage viability is then compared to the calculated value. If the observed value of Exy is greater than the calculated Exy value, the combination treatment is considered as worse than expected, which means antagonism effect. If the observed value is less than the calculated one, then the combination treatment is considered as better than expected, thus showing synergism effect. […]

CaCO2 cells = test: Cell viability, Alamar Blue (Resazurin assay), CaCO2; settings: CBD 16-252 μg/mL
Experimental: (§3) Resazurin (R&D Systems) was used to check the cytotoxic effect of extracts. For this, 10% Resazurin was added to each well of the treatments with different dilution. Then the plate was incubated for 2-4 hours at 37° C. in a humidified 5% CO2-95% air atmosphere. Supernatant (100 μL from each well) was transferred to a 96-well plate and the relative fluorescence at the excitation/emission of 544/590 nm was measured. The number of live cells was calculated with a linear standard concentrate curve built by seeding different concentrations of cells in 24-well plates treated with Resazurin. Values were calculated as percentage of live cells relative to the non-treated (cells without TNF-α and treatments) control after reducing auto-fluorescence of Alamar Blue without cells.

HCT116 cells = test: Cell viability, Alamar Blue (Resazurin assay), HCT116
Experimental: HCT116 cells were seeded (50,000 per well) in triplicate in 500 μL growing media and incubated for 24 hours at 37° C. in a humidified 5% CO2-95% air atmosphere. […] Following, the cells were incubated with Alamar Blue for 4 hours. Relative fluorescence at the excitation/emission of 544/590 nm was measured. Values were calculated as percentage of live cells relative to the non-treated (cells without TNF-α and treatments) control after reducing the auto fluorescence of Alamar Blue without cells (n=3). […] HCT116 cells were seeded (50,000 per well) in triplicate in 500 μL, growing media and incubated for 24 hours at 37° C. in a humidified 5% CO2-95% air atmosphere. […] Relative fluorescence at the excitation/emission of 544/590 nm was measured. Values were calculated as percentage of live cells relative to the non-treated (cells without TNF-α and treatments) control after reducing the auto fluorescence of Alamar Blue without cells (n=3). […]
Resazurin (R&D Systems) was used to check the cytotoxic effect of extracts. […] Supernatant (100 μL from each well) was transferred to a 96-well plate and the relative fluorescence at the excitation/emission of 544/590 nm was measured. The number of live cells was calculated with a linear standard concentrate curve built by seeding different concentrations of cells in 24-well plates treated with Resazurin. […]

[3] = tested on: IL-8 levels in CaCO2 cells; test: IL-8 ELISA in TNF-α-treated CaCO2 cells; settings: CaCO2, 300 ng/mL TNF-α, 4 hours
Experimental: as §1, §2

HT29 cells = test: Cell viability, Alamar Blue (Resazurin assay), HT29; settings: CBD 16-252 μg/mL, relative to HCT116 and CaCO2
Experimental: as §3

[4] = tested on: CB2 gene expression in HCT-116 cells; test: CB2 gene expression (qPCR) in HCT-116 cells after TNF-α; settings: HCT-116, overnight treatment with TNF-α vs non-treated; ratio to GAPDH, 2-ΔΔCT
Experimental: (§4) Cells were seeded into a 6-well plate at a concentration of 1,500,000 cell/mL per well. After 24 hours incubation at 37° C. in a humidified 5% CO2-95% air atmosphere, cells were treated with TNF-α (final concentration of 1 ng/mL) and incubated overnight under the same conditions. Non-treated cells or cells treated only with TNF-α served as negative and positive controls, respectively. […] The next day, cells were harvested and total RNA was extracted using TRI reagent (Sigma-Aldrich) according to the manufacturer's protocol. For biopsies, all treatments were added overnight, after which the biopsies were stored at −20° C. in RNA Save solution (Biological Industries, Beit Haemek, Israel). RNA was extracted from frozen biopsies. Tissue samples were homogenized with an appropriate homogenizer in TRI reagent, as done for the cells. RNA (50 ng for biopsies: four UC patients and one CD patient) or 2.5 μg (for cells) was reverse-transcribed in a total volume of 20 μL using Maxima reverse transcriptase (Thermo Scientific, Boston, Mass., USA) according to the manufacturer's protocol. […] The expression of each target gene was normalized to the expression of GAPDH mRNA in the 2-ΔΔCt and is presented as the ratio of the target gene to GAPDH mRNA, expressed as 2-ΔCt, where Ct is the threshold cycle and ΔCt=Ct Target−Ct GAPDH. […]
(§5) Transcripts for CB1, CB2 and GPR55 were detected by qPCR in HCT116 cells.

[5] = tested on: GPR55 gene expression in HCT-116 cells; test: GPR55 gene expression (qPCR) in HCT-116 cells after TNF-α; settings: HCT-116, overnight treatment with TNF-α vs non-treated; ratio to GAPDH, 2-ΔΔCT
Experimental: as §4, §5

[6] = tested on: CB1 gene expression in HCT-116 cells; test: CB1 gene expression (qPCR) in HCT-116 cells after TNF-α; settings: HCT-116, overnight treatment with TNF-α vs non-treated; ratio to GAPDH, 2-ΔΔCT
Experimental: as §4, §5

Compound: C=C(C)[C@@H]1CCC(C)=C[C@H]1c1c(O)cc(CCCCC)cc1O [CBD, cannabidiol]
- anti-inflammatory activity (IL-8) ([1]; HCT116, higher CBD concentrations): no anti-inflammatory activity
- EC50 [1]: 30.4 µM
- reduction in IL-8 levels ([1]; purified CBD 16-252 μg/mL, lower concentrations of CBD): reduction in IL-8 levels
- anti-inflammatory activity (IL-8 level) ([2]; HT29, 300 ng/mL TNF-α, 4 hours): active in reduction of IL-8 levels
- dose response of IL-8 levels [2]: dose dependent reduction of IL-8 levels
- IL-8 level at low concentrations ([2]; HT29, CBD below 20 μM): significant decrease in the IL-8 level
- cell death (CaCO2 cells): dose-dependent cell death
- cell death (HCT116 cells; CBD 16-252 μg/mL): dose-dependent cell death
- anti-inflammatory activity (IL-8 level) [3]: active in reduction of IL-8 levels
- cell death (HT29 cells): to a lesser extent

Compound: Cc1ccc(-c2n[nH]c3c2C(c2cccc(O)c2)N(c2ccc(C(=O)O)cc2)C3=O)cc1 (stereo not drawn) [CID16020046]
- IL-8 level in control ([1]; HCT116, antagonist 20 μM alone, without fractions): did not change IL-8 level

Compound: CCCCCc1cc(O)c2c(c1)OC(C)(C)[C@@H]1CCC(C)=C[C@@H]21 [THC, Δ9-tetrahydrocannabinol]
- EC50 [1]: 102 µM
- dose response of IL-8 levels [2]: dose dependent reduction of IL-8 levels

Compound: CCCCCc1cc2c(c(O)c1C(=O)O)C1C=C(C)CCC1C(C)(C)O2 (stereo not drawn) [THCA, Δ9-tetrahydrocannabinolic acid]
- reduction of IL-8 levels ([1]; HCT116, 50 ng/mL TNF-α, 16 hours, 0.2 mM THCA, F7 diluted 280-fold to correspond to 0.2 mM THCA): significantly reduced IL-8 levels

Compound: SR144528
- HCT116 cell proliferation (HCT116 cells; antagonist 20 μM): Significantly Increases HCT116 Cell Proliferation

Compound: TNF-α
- Mean relative expression, CB2 [4]: 5.84
- Mean relative expression, GPR55 [5]: 5.26
- Mean relative expression, CB1 [6]: 1.31
